Read-outs that look alike come from different tables or passages of the source.
Experiments:
S. aureus = assay: MIC, modified CLSI broth microdilution; assay type: cell-based, Staphylococcus aureus; settings: S. aureus ATCC 29213; inoculum prepared in Diluent solution
From the text: (§1) All clinical isolates were obtained from the culture collection of Eurofins Medinet Anti-Infective Services (Herndon, Va.), and represent diverse geographical regions. They were originally derived from clinical specimens and identified using standard microbiological methods (see Table 33 below for details). Escherichia coli ATCC 25922, Staphylococcus aureus ATCC 25923, S. aureus ATCC 29213, Pseudomonas aeruginosa ATCC 27853, and Enterococcus faecalis ATCC 29212 were used as quality control strains for the Enhanced MPO Solution and comparator agents to validate the modified Clinical and Laboratory Standards Institute (CLSI, formally NCCLS) broth microdilution method.
(§2) Modifications were made to the standard broth microdilution method to accommodate the rapid in vitro activity of the Enhanced MPO Solution as described below. Each antimicrobial agent and Concentrate solution was diluted in double strength cation-adjusted Mueller-Hinton Broth (CAMHB) and dispensed in mircrodilution trays. All β-hemolytic streptococci were tested in double strength CAMHB supplemented with 5% lysed horse blood. Isolates were prepared by suspending several colonies (four to six) from an overnight culture on Trypticase Soy Agar (TSA) with 5% sheep blood into sterile saline and the density adjusted to a 0.5 McFarland standard (˜10^8 CFU/ml). Standardized bacterial suspensions were further diluted in double strength Diluent solution so that approximately 5×10^5 CFU/ml was mixed with serial drug dilutions. The addition of Diluent solution to the Concentrate solution activates the enzyme system, which in turn exerts its rapid mode of action. The microdilution trays were incubated in ambient air at 35° C. for 18 to 24 h.
(§3) MIC ranges were established for the Enhanced MPO Solution by testing over 20 replicates of one lot of the Enhanced MPO Solution against S. aureus ATCC 29213 and E. coli ATCC 25922. Quality control parameters were then determined for the Enhanced MPO Solution by testing three lots of the Concentrate solution used for preparation of the final Enhanced MPO Solution formulation. Testing was performed in duplicate against S. aureus ATCC 29213 and E. coli ATCC 25922. The effects of modifying the standard broth microdilution test were also assessed with antibiotics with known quality control limits to validate the CLSI broth microdilution method.

E. coli = assay: MIC, modified CLSI broth microdilution; assay type: cell-based, Escherichia coli; settings: E. coli ATCC 25922; inoculum prepared in Diluent solution
From the text: as §1, §2, §3

Staphylococcus aureus [1] = assay: Control: microbicidal activity of the amino acid or analogue alone (no glucose, MPO, glucose oxidase) in the presence of blood; assay type: cell-based; settings: for log reduction at 5000 µM: Staphylococcus aureus, 1 h, read-out: Log Reduction 60 min
From the text: As a control to determine the microbicidal activity of the amino acids alone, the foregoing procedure was followed without replication, except in the absence of glucose, MPO, and glucose oxidase.

Staphylococcus aureus [2] = assay: Microbicidal activity of the myeloperoxidase system (p-MPO, glucose oxidase, glucose) with amino acids in the presence of blood, CFU plate counts; synergy determination from these CFU; assay type: cell-based; settings: for Average Viability CFU/ml 60 min / Log Reduction 60 min / Log 10 (CFU + 1) Survivors 60 min: amino acid 5 mM (none: 0 mM), MPO 38 U/ml, GO 33.3 U/ml, blood; for Average Viability CFU/ml 50 min / Log Reduction 50 min: single amino acid 2.5 mM, MPO 4.7 U/ml, GO 4.2 U/ml, in the presence of blood
Summary of the method: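 Staphylococcus aureus grown 24 hours in TSB at 35° C was washed in saline and added at a final 2-3×10^7 CFU per mL. The bacteria were mixed in 1 mL reactions with porcine myeloperoxidase, glucose oxidase, amino acids, 150 mM sodium chloride and 3% venous whole blood. Adding glucose to 150 mM started killing. After catalase addition, survivors were counted by serial dilution plating on TSA at 37° C for 24 hours.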

[3] = amino acid alone 5 mM, MPO 0, GO 0, no glucose, blood, without replication
[4] = MPO 100 μg/mL, AA 20 mM, 30 min
[5] = MPO 100 μg/mL, AA 20 mM, 60 min

SMILES	log reduction at 5000 µM (Staphylococcus aureus [1]; [3])	Average Viability CFU/ml 60 min (Staphylococcus aureus [1]; [3]) [CFU/ml]	Log 10 (CFU + 1) Survivors (Staphylococcus aureus [2]; MPO 25 μg/mL, AA 5 mM, 30 min)	Log 10 (CFU + 1) Survivors (Staphylococcus aureus [2]; MPO 25 μg/mL, AA 5 mM, 60 min)	Log 10 (CFU + 1) Survivors (Staphylococcus aureus [2]; MPO 25 μg/mL, AA […], 30 min)	Log 10 (CFU + 1) Survivors (Staphylococcus aureus [2]; MPO 25 μg/mL, AA […], 60 min)	Log 10 (CFU + 1) Survivors (Staphylococcus aureus [2]; MPO 100 μg/mL, AA 5 mM, 30 min)	Log 10 (CFU + 1) Survivors (Staphylococcus aureus [2]; MPO 100 μg/mL, AA 5 mM, 60 min)	Log 10 (CFU + 1) Survivors (Staphylococcus aureus [2]; [4])	Log 10 (CFU + 1) Survivors (Staphylococcus aureus [2]; [5])	Average Viability CFU/ml 50 min (Staphylococcus aureus [2]; Table 10) [CFU/ml]	Log Reduction 50 min (Staphylococcus aureus [2]; Table 10)	Average Viability CFU/ml 50 min (Staphylococcus aureus [2]; Table 13) [CFU/ml]	Log Reduction 50 min (Staphylococcus aureus [2]; Table 13)	Average Viability CFU/ml 60 min (Staphylococcus aureus [2]; Table 3) [CFU/ml]	Log 10 (CFU + 1) Survivors 60 min (Staphylococcus aureus [2]; Table 3)	Log Reduction 60 min (Staphylococcus aureus [2]; Table 3)	also measured
Cc1nnc(SCC2=C(C(=O)O)N3C(=O)[C@@H](NC(=O)Cn4cnnn4)[C@H]3SC2)s1 [cefazolin]																		MIC by the modified method versus published quality control ranges (S. aureus): within previously published quality control ranges; MIC by the modified method versus published quality control ranges (E. coli): within previously published quality control ranges
N[C@H](Cc1ccc(O)cc1)C(=O)O [D-Tyrosine]	0	23200000	6.8	5.9	6.7	7.0	6.7	5.0	5.8	0.0	1320000	1.3						Average Viability CFU/ml 60 min (Staphylococcus aureus [2]; Table 5): 9400 CFU/ml; Log Reduction 60 min (Staphylococcus aureus [2]; Table 5): 3.4
NC(=O)CC[C@H](N)C(=O)O [L-Glutamine]	0	24100000	7.3	7.1	6.8	7.0	7.2	0.0	7.0	5.2	14350000	0.2	12550000	0.3				Average Viability CFU/ml 60 min (Staphylococcus aureus [2]; Table 2): 286 CFU/ml; Log 10 (CFU + 1) Survivors 60 min (Staphylococcus aureus [2]; Table 2): 2.5; Log Reduction 60 min (Staphylococcus aureus [2]; Table 2): 4.9
NCCCC[C@@H](N)C(=O)O [D-Lysine]		25100000																log reduction at 5000 µM (Staphylococcus aureus [1]): 0; Average Viability CFU/ml 60 min (Staphylococcus aureus [2]; Table 4): 5050000 CFU/ml; Log Reduction 60 min (Staphylococcus aureus [2]; Table 4): 0.7
NCCS(=O)(=O)O [Taurine]	0	21600000	7.3	7.0	7.3	7.1	7.3	5.0	7.3	5.1					830000	5.9	1.4	
N[C@@H](CC(=O)O)C(=O)O [L-Aspartic acid]	0.1	18600000	7.1	7.0	7.0	6.9	7.0	5.8	7.0	6.8	6900000	0.6	4700000	0.7	620000	5.8	1.5	

Source: US8945540B2, “Compositions for enhancing the antibacterial activity of myeloperoxidase and methods of use thereof” (Exoxemis, Inc., priority 2008, dated 2015)
